Tests used:
[1] = test system: SSC90 (HPV-positive) head and neck squamous cell carcinoma cell line; test: Xenograft study, SSC90; format: in vivo, SCID mice; settings: Alda-341 from one week ahead of irradiation, during and post; 30 Gy over 5 fractions
Description: Xenograft study: Six-week old SCID mice were purchased from the Jackson laboratory and five mice per group were used. SCC90 and SAS cells (2×10^6 cells/injection) were implanted into both flanks of each mouse. Alda-341 treated one week ahead of irradiation and continued during and post radiation. Total 30 Gy over 5 fractions in a week was delivered to the tumor with the rest of the body shielded. Tumor size was measured every 1-2 days. Tumor volume was calculated by the formula (π×length×width×height)/6.

ALDH4A1 = target: T1, ALDH4A1 (Homo sapiens, UniProt P30038); test: ALDH enzymatic assay, recombinant ALDH4A1; format: biochemical; settings: 5 μg/ml recombinant enzyme, 10 mM acetaldehyde, 20 μM Alda-341
T1 sequence (P30038 25-563): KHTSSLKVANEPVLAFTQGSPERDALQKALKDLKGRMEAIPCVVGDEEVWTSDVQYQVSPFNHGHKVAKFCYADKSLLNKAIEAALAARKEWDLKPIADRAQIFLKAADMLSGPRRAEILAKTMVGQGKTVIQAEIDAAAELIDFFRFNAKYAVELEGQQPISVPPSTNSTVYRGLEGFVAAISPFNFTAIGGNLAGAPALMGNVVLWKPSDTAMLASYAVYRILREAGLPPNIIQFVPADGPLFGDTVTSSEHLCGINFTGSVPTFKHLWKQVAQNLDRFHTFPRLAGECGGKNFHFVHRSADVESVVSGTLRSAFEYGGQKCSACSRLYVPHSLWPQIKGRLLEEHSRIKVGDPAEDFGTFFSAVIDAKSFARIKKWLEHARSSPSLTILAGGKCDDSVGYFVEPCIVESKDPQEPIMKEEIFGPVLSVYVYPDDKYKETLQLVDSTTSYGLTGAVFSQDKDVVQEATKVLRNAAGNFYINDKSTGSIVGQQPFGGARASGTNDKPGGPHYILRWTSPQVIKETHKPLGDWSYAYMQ
Description: ALDH enzymatic assay: ALDH1A1, ALDH1A2, 2, 3A1, 3A2, 4A1, 5A1, 7A1 were measured as previously described using 5 μg/ml of recombinant protein (Chen, C. H., Cruz, L. A., and Mochly-Rosen, D. (2015) Pharmacological recruitment of aldehyde dehydrogenase 3A1 (ALDH3A1) to assist ALDH2 in acetaldehyde and ethanol metabolism in vivo. Proceedings of the National Academy of Sciences of the United States of America 112, 3074-3079). […] Assays were conducted in 50 mM NaPPi buffer (pH 7.4) in the presence of 2.5 mM NAD^+ and 10 mM substrate and measured in triplicate at 25° C. Dose response curve fits and EC50's were calculated using GraphPad Prism 7 software.

[2] = test system: intact SMG from CD-1 E13.5 embryos; test: DarkZone dye aldehyde assay in intact E13.5 embryonic SMG; format: cell-based, mouse; settings: 25 μM Alda-341 for 24 h, 4 Gy, 3 h after radiation
Description: DarkZone dye aldehyde assay in intact E13.5 embryonic SMG: E13.5 embryonic whole SMG were manually dissected and cultured in DMEM/F12 with 50 ug/mL transferrin and 50 ug/mL Vitamin C for 24 h. Glands were irradiated with 4 or 8 Gy and incubated with 20 uM DarkZone fluorescein aldehyde dye and 10 mM 2,4-Dimethoxyaniline catalyst (TCI America) for 1 h (Yuen, L. H., Saxena, N. S., Park, H. S., Weinberg, K., and Kool, E. T. (2016) Dark Hydrazone Fluorescence Labeling Agents Enable Imaging of Cellular Aldehydic Load. ACS chemical biology 11, 2312-2319). Glands were imaged 3 h after radiation using a Keyence BZ-X710 microscope GFP filter at 10× magnification. Average fluorescence intensity was quantified using Image J (NIH).
After 24 h, the glands were irradiated with 4 Gy and incubated SMG with DarkZone dye to measure intracellular aldehydes. After 3 h, the aldehydic load in the irradiated vehicle control-treated SMG was more than 4-fold greater than the non-irradiated vehicle control-treated SMG.

Structure (SMILES): C=C(C)[C@H]1CC=C(C)CC1 [Alda-341, D-limonene]
- tumor growth and protection of tumors from radiation, SSC90 xenograft [1]: did not increase tumor growth or protect tumors from radiation
- catalytic activity of ALDH4A1 (ALDH4A1): did not increase
- aldehydic load after radiation [2]: reduced the aldehydic load to almost non-irradiated levels

— patent US20190060249A1 (priority 2017, published 2019)
